Assay results published in ChEMBL document CHEMBL1201862, “PubChem BioAssay data set” (2004).
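The compound was tested at five concentrations on cells cultured in 96-well plates, with a 48-hour exposure period. GI50 = concentration required for 50% inhibition of growth.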 The source made the active and inactive calls. Cut-off read from the data, not from the text of the source: active = GI50 up to about 1.1 µM and inactive = higher.

Experiments:
Assay in all cases: DTP human tumour cell line panel, 48 h
NCI-H23 = tested on: NCI-H23
SF-295 = tested on: SF-295
NCI-H522 = tested on: NCI-H522
UACC-257 = tested on: UACC-257
PC-3 = tested on: PC-3
SNB-75 = tested on: SNB-75
M14 = tested on: M14
OVCAR-4 = tested on: OVCAR-4
A549 = tested on: A549
K562 = tested on: K562
ACHN = tested on: ACHN
MDA-MB-231 = tested on: MDA-MB-231
OVCAR-5 = tested on: OVCAR-5
UO-31 = tested on: UO-31
T47D = tested on: T47D
NCI-H460 = tested on: NCI-H460
MCF7 = tested on: MCF7
HCC 2998 = tested on: HCC 2998
CCRF-CEM = tested on: CCRF-CEM

Measured: GI50

C#CCSc1nc(-c2ccco2)n[nH]1
inactive: NCI-H23 > 100 µM | SF-295 > 100 µM | NCI-H522 > 100 µM | UACC-257 > 100 µM | PC-3 > 100 µM | SNB-75 > 100 µM | M14 > 100 µM | OVCAR-4 > 100 µM | A549 > 100 µM | K562 > 100 µM | ACHN > 100 µM | MDA-MB-231 > 100 µM | OVCAR-5 > 100 µM | UO-31 17.2 µM | T47D > 100 µM | NCI-H460 > 100 µM | MCF7 > 100 µM | HCC 2998 > 100 µM

COc1cc2c(cc1OC)CN1CCc3ccccc3CC1C2 (stereo not given)
inactive: NCI-H23 31.9 µM | SF-295 34.6 µM | CCRF-CEM 36.9 µM | UACC-257 51.4 µM | PC-3 41.7 µM | SNB-75 29 µM | M14 30.1 µM | OVCAR-4 16.1 µM | A549 49.7 µM | K562 32.9 µM | ACHN 22.6 µM | MDA-MB-231 > 100 µM | OVCAR-5 > 100 µM | UO-31 22.9 µM | T47D 22.5 µM | NCI-H460 26.3 µM | MCF7 25.6 µM | HCC 2998 28.8 µM

CC1(C)OC2C(=O)C=C(COCc3ccccc3)C2O1 (stereo not given)
inactive: NCI-H23 19.2 µM | SF-295 35.2 µM | NCI-H522 16.5 µM | CCRF-CEM 21 µM | UACC-257 35.5 µM | PC-3 23.9 µM | SNB-75 > 10 µM | M14 26.3 µM | A549 > 100 µM | K562 23.6 µM | ACHN 31.6 µM | MDA-MB-231 27.4 µM | OVCAR-5 31.1 µM | UO-31 21.9 µM | T47D 23 µM | MCF7 34 µM

C[C@]12CC[C@H]3[C@@H](CCC4=CC(=O)CC[C@@]43C)[C@@H]1CC[C@@H]2C(=O)Nc1ccc([N+](=O)[O-])c(C(F)(F)F)c1
inactive: NCI-H23 > 10 µM | SF-295 17.1 µM | NCI-H522 17.2 µM | CCRF-CEM 24.7 µM | UACC-257 > 10 µM | PC-3 19.6 µM | OVCAR-4 15.3 µM | A549 17.9 µM | K562 26.6 µM | ACHN 18.7 µM | MDA-MB-231 17.1 µM | OVCAR-5 > 10 µM | UO-31 16.6 µM | T47D 15.6 µM | NCI-H460 17.3 µM | MCF7 16.3 µM | HCC 2998 12.9 µM

O=C(CC(C(=O)c1cccs1)c1ccsc1)c1ccc(Cl)cc1 (stereo not given)
inactive: NCI-H23 > 100 µM | SF-295 > 100 µM | CCRF-CEM > 100 µM | UACC-257 > 100 µM | PC-3 > 100 µM | SNB-75 > 100 µM | M14 > 100 µM | OVCAR-4 > 100 µM | A549 > 100 µM | K562 > 100 µM | ACHN > 100 µM | MDA-MB-231 > 100 µM | OVCAR-5 > 100 µM | UO-31 > 100 µM | T47D > 100 µM | NCI-H460 > 100 µM | MCF7 > 100 µM | HCC 2998 > 100 µM

O=c1[nH]nc(-c2ccccc2)c2[nH]c3c(c12)CCCc1ccccc1-3
inactive: NCI-H23 52.2 µM | SF-295 20.7 µM | NCI-H522 7.69 µM | CCRF-CEM 14 µM | UACC-257 18.7 µM | PC-3 14.9 µM | M14 16.8 µM | OVCAR-4 12.9 µM | A549 9.46 µM | K562 12.8 µM | ACHN 11.9 µM | MDA-MB-231 15.9 µM | OVCAR-5 18.7 µM | UO-31 12.8 µM | T47D 8.97 µM | NCI-H460 16 µM | MCF7 19.6 µM | HCC 2998 14.8 µM

CC(C)CCNC(=O)c1ccc(CNC(=O)/C=C/c2cccc(Oc3ccccc3)c2)cc1
inactive: NCI-H23 34.3 µM | SF-295 23.8 µM | NCI-H522 52.5 µM | UACC-257 23.2 µM | PC-3 46.2 µM | SNB-75 34.9 µM | M14 31 µM | OVCAR-4 27.7 µM | A549 42.6 µM | K562 > 100 µM | ACHN 48.4 µM | MDA-MB-231 24.1 µM | OVCAR-5 > 100 µM | UO-31 45 µM | T47D 79.3 µM | NCI-H460 34.3 µM | MCF7 36.5 µM | HCC 2998 26.9 µM

COC(=O)C(CNC(=O)/C=C/c1ccc(OC(C)=O)c(OC(C)=O)c1)NC(=O)/C=C/c1ccc(OC(C)=O)c(OC(C)=O)c1 (stereo not given)
inactive: NCI-H23 > 100 µM | SF-295 > 100 µM | NCI-H522 32.1 µM | CCRF-CEM 42.4 µM | UACC-257 > 100 µM | PC-3 > 100 µM | M14 > 100 µM | OVCAR-4 > 100 µM | A549 > 100 µM | K562 64.1 µM | ACHN > 100 µM | MDA-MB-231 > 100 µM | OVCAR-5 > 100 µM | UO-31 > 100 µM | T47D 77.3 µM | NCI-H460 > 100 µM | MCF7 > 100 µM | HCC 2998 > 100 µM

O=C1c2ccccc2-c2[nH]c3cn[nH]c(=O)c3c21
inactive: NCI-H23 > 100 µM | SF-295 > 100 µM | NCI-H522 13.4 µM | CCRF-CEM > 100 µM | UACC-257 > 100 µM | PC-3 > 100 µM | SNB-75 42.6 µM | M14 > 100 µM | OVCAR-4 > 100 µM | A549 > 100 µM | K562 61.2 µM | ACHN 85.9 µM | MDA-MB-231 97.5 µM | OVCAR-5 > 100 µM | UO-31 23.8 µM | T47D > 100 µM | NCI-H460 64.9 µM | MCF7 43.9 µM

Cc1ccc(/N=N/c2ccc(N)cc2C)c(S(N)(=O)=O)c1
inactive: NCI-H23 > 100 µM | SF-295 56.1 µM | NCI-H522 36.4 µM | CCRF-CEM 48.1 µM | UACC-257 45.2 µM | PC-3 89.7 µM | SNB-75 61.9 µM | M14 > 100 µM | OVCAR-4 > 100 µM | A549 50.5 µM | K562 75.9 µM | ACHN 90.6 µM | MDA-MB-231 > 100 µM | OVCAR-5 > 100 µM | UO-31 63 µM | T47D 48.8 µM | NCI-H460 49.3 µM | MCF7 61.9 µM

O=C(/C=C/c1ccccc1)c1cc(CN2CCOCC2)c(O)c(CN2CCOCC2)c1
inactive: NCI-H23 22.5 µM | SF-295 19.1 µM | NCI-H522 > 100 µM | CCRF-CEM 2.71 µM | UACC-257 14.3 µM | PC-3 19.2 µM | SNB-75 19.3 µM | M14 17.9 µM | A549 17.9 µM | K562 5.47 µM | ACHN 2.32 µM | MDA-MB-231 18.2 µM | OVCAR-5 14.6 µM | UO-31 15.4 µM | T47D 20 µM | NCI-H460 6.71 µM | MCF7 14.7 µM | HCC 2998 18.6 µM
